Results reported in patent US7183279B2, “Histogranin-like peptides and non-peptides, processes for their preparation and uses thereof” (University of Ottawa, priority 2006, dated 2007).
Entries after “also recorded” stand apart in the source; their conditions may differ. Like-named read-outs stand apart in the source and are kept apart here. Non-standard residues stand in square brackets, D forms with d. Residues, ends and D or L forms follow the SMILES beside them. Phe(4-Cl) = N[C@@H](Cc1ccc(Cl)cc1)C(=O)O

Key:
Swiss Webster mice [1] = experiment: Mouse writhing test (acetic acid-induced); type: in vivo; details: for AD50 (nmol/mouse): acetic acid i.p. 5 min after injection; for analgesia: i.v. administration, 1 μmol/kg; for analgesic activity after peripheral administration: oral and i.p. administrations
Swiss Webster mice [2] = experiment: Mouse tail flick assay (radiant heat); type: in vivo; details: i.c.v.; for AD50 (nmol/mouse): latency 5 min after injection
Procedure: Mouse tail flick assay. […] Briefly, the latency to withdraw the tail from a focused light stimulus was determined using a photocell. […] Baseline latencies were determined before experimental treatment as the mean of two trials and a maximal latency of 12 s was used to minimize tissue damage. Post-treatment latencies were determined 5 min after i.c.v. injection. The antinociceptive effect was expressed as the percentage of the maximum possible effect, as calculated by the formula: % MPE=[(post-injection latency-baseline latency)/(cutoff latency-baseline latency)]×100. […] Group % MPE means were compared using one-way ANOVAs and P≦0.05 was considered significant.

Swiss Webster mice [3] = experiment: Mouse rotarod assay; details: 10 nmol i.c.v.
Description: Mouse rotarod assay. The rotarod treadmill (model 7600, UGO Basile, Italy) for mice was used to assess the motor side-effects of antinociceptive agents. […] The apparatus is constituted of a rod with a diameter of 2.5 cm suspended horizontally 50 cm above a plane working area. The rod is turning at a speed of 8 revolutions per min. Circular perpex separators are placed at regular intervals along the rod so that five mice can be tested at the same time. Before administering any compound, all animals are placed on the turning rod for one min in two consecutive rounds. Mice that fall from the rod during these conditioning experiments are excluded from the assay. For the assay, the test compounds were administered i.c.v. and the animals were placed on the turning rod for two min. The % of mice in groups of 10 mice which fell during this latter two min-experiment was recorded as the % of mice showing motor effects. Rotarod assays were conducted at different times (up to 60 min) after the administration of peptides. Statistical calculation were made using Student t-test. Results: Mouse writhing pain assay. […] The lengths of action of the various compounds were evaluated by measuring the time (T1/2) it took after injection of a specific dose of a compound to produce half-maximal effect. […] Analgesic effects of peripheral administrations. […] Mouse tail-flick assay.

Swiss Webster mice [4] = details: literature values; cited from earlier work
Swiss Webster mice [5] = experiment: Induction of tolerance to morphine, tail-flick latency; type: in vivo, mouse; details: for tail-flick latency on repeated dosing: 8 days
Procedure: Tail-flick latency to thermal pain was recorded 30 min after the i.p. administration(s) in the morning session of days 1, 3, 6 and 8 as indicated in the figure.

rat = details: literature; cited from earlier work
[6] = sciatic nerve injury, literature; cited from earlier work
[7] = i.t. administration of NMDA, literature; cited from earlier work

Compound	Potency ratio relative to Histogranin (HN) (Swiss Webster mice [1]; i.c.v.)	AD50 (nmol/mouse) (Swiss Webster mice [1]; i.c.v.)	Potency ratio relative to [Ser1]HN (Swiss Webster mice [2])	AD50 (nmol/mouse) (Swiss Webster mice [2])	motor effect (Swiss Webster mice [3])	other results
N=C(N)NCCC[C@H]1NC(=O)[C@H](Cc2ccc(O)cc2)NC(=O)[C@H](Cc2ccc(Cl)cc2)NC(=O)CNC1=O [Compound I-1, Cyclo(-Gly-(p-chloro)Phe-Tyr-D-Arg-)] (cyclo(G[Phe(4-Cl)]Y[dR]))	135	0.17	12.5	9.1	did not cause any motor effect	fold more potent than morphine (Swiss Webster mice [1]; i.c.v.): 3.9 fold; analgesia (Swiss Webster mice [1]): 84%; analgesic activity after peripheral administration (Swiss Webster mice [1]): dose-dependent analgesic activity; also recorded: Significant analgesic activity; analgesia in tail-flick assay in words (Swiss Webster mice [2]): more potent than HN
C[C@@H](O)[C@@H]1NC(=O)[C@@H](CCCNC(=N)N)NC(=O)[C@H](Cc2ccc(O)cc2)NC(=O)[C@H](Cc2ccc(Cl)cc2)NC1=O [Compound I-5, Cyclo(-Thr-(p-chloro)Phe-Tyr-D-Arg-)] (cyclo([Phe(4-Cl)]Y[dR]T))	2.14	10.7	2.96	38.5	did not cause any motor effect	–
CC(C)CC(NC(=O)C(NC(=O)C(CCCNC(=N)N)NC(=O)CNC(=O)C(CCC(N)=O)NC(=O)CN)C(C)O)C(=O)NC(Cc1ccc(O)cc1)C(=O)NCC(=O)NC(Cc1ccccc1)C(=O)O (stereo not shown) [HN-(7–15), reference compound] (H-GQGRTLYGF-OH; configuration not given here)	2.71	8.5	–	–	–	AD50 (Swiss Webster mice [4]): 8.5 nmol/mouse
N=C(N)NCCC[C@H](Nc1ccccc1NC(=O)Cc1ccc(O)cc1)C(N)=O [II-1, N-5-guanidinopentanamide-(2S)-yl-2-N-(p-hydroxyphenylacetyl) phenylenediamine]	3.54	6.5	8.0	14.2	did not cause any motor effect	potentiation of morphine analgesia (Swiss Webster mice [1]; coadministration i.c.v. of subanalgesic dose (3 nmol) with morphine): left shift in the dose-response curve of morphine; also recorded: potentiates the analgesic effects of morphine; prolongation of morphine analgesia (Swiss Webster mice [1]; coadministration with morphine 0.5 nmol i.c.v.): slightly prolongated; analgesia (Swiss Webster mice [1]): 35%; analgesic activity after peripheral administration (Swiss Webster mice [1]): dose-dependent analgesic activity; also recorded: Significant analgesic activity; analgesia in tail-flick assay in words (Swiss Webster mice [2]): more potent than HN; effect on analgesic effect of morphine (Swiss Webster mice [5]; 4 mg/kg i.p. 30 min prior to morphine 10 mg/kg): potentiated the analgesic effect of morphine; effect on morphine tolerance (Swiss Webster mice [5]; 4 mg/kg i.p. 30 min prior to morphine 10 mg/kg, days 6 and 8): inhibits morphine tolerance; tail-flick latency on repeated dosing (Swiss Webster mice [5]; 4 mg/kg i.p. twice a day, alone): small increase in the tail-flick latency that was significant only on days 1 and 8
N=C(N)NCCC[C@H](Nc1ccc(C(F)(F)F)cc1NC(=O)Cc1ccc(O)cc1)C(N)=O [II-2, N-5-guanidinopentanamide-(2S)-yl-2-N-(p-hydroxyphenylacetyl)-4-trifluorometyl-phenylenediamine]	1.40	16.1	1.16	98.6	did not cause any motor effect	–
N=C(N)NCCC[C@@H](Nc1ccc(C(=O)O)cc1NC(=O)Cc1ccc(O)cc1)C(N)=O [II-3, N-5-guanidinopentanamide-(2R)-yl-2-N-(p-hydroxyphenylacetyl)-4-carboxy-phenylenediamine]	7.27	3.16	3.59	31.7	did not cause any motor effect	–
N=C(N)NCCC[C@@H](Nc1ccc(C(=O)c2ccc(Cl)cc2)cc1NC(=O)Cc1ccc(O)cc1)C(N)=O [II-4, N-5-guanidinopentanamide-(2R)-yl-2-N-(p-hydroxyphenylacetyl)-4-(p-chlorobenzoyl)-phenylenediamine]	8.87	2.61	8.70	13.1	did not cause any motor effect	–
N=C(N)NCCC[C@H](C(N)=O)n1c(-c2ccc(O)cc2)nc2cc(C(=O)O)ccc21 [III-1]	5.56	4.14	11.9	9.6	did not cause any motor effect	analgesic activity after peripheral administration (Swiss Webster mice [1]): dose-dependent analgesic activity; also recorded: Significant analgesic activity; analgesia in tail-flick assay in words (Swiss Webster mice [2]): more potent than HN
CN1CC[C@]23c4c5ccc(O)c4O[C@H]2[C@@H](O)C=C[C@H]3[C@H]1C5 [Morphine, reference compound]	–	0.72	–	1.57	–	tail-flick latency on repeated dosing (Swiss Webster mice [5]; 10 mg/kg i.p. twice a day): tolerance being developed at days 6 and 8
Cyclo(-Gly-(p-amino)Phe-Tyr-D-Arg-) [Compound I-4]	9.14	2.52	–	–	–	analgesia (Swiss Webster mice [1]): 71%
Cyclo(-Gly-(p-chloro)Phe-Tyr-(p-amino)Phe-) [Compound I-2]	3.39	6.79	–	–	–	–
Cyclo(-Gly-(p-chloro)Phe-Tyr-(p-guanidino)Phe-) [Compound I-3]	21.3	1.08	–	–	–	–
[Ser^1] HN: a chemically stable analog of HN	–	–	1	114	–	tonic pain (rat): blocked tonic pain; hyperalgesia and allodynia [6]: attenuated hyperalgesia and allodynia; hyperalgesia and allodynia [7]: attenuated hyperalgesia and allodynia
